Laboratory results reported in US12655458B2, “Methods for cyclization of (poly)peptides comprising nγ-hydroxy- or Nγ-amino-L-asparagine” (priority 2021, dated 2026).
Where two headings read alike, the source gives them in different places. Starred links: 1 amine or outer side, 2 acyl side, 3 side chain; linkers in the order of their positions; H or OH if unused. Non-standard residues stand in square brackets, D forms with d. Residues, ends and D or L forms follow the SMILES beside them. No end group written: not given here. *: point of attachment. N(OH) = N-hydroxy-L-asparagine, O=C(C[C@H](N[*:1])C(=O)[*:2])NO; NHOH = ON*

Assays:
MMP2 = molecular target: T1, MMP2 (Homo sapiens, UniProt P08253); test: MMPs inhibition assay (FRET substrate), MMP2; format: biochemical
T1 construct: purchased Sigma-Aldrich
T1 sequence (P08253 110-660): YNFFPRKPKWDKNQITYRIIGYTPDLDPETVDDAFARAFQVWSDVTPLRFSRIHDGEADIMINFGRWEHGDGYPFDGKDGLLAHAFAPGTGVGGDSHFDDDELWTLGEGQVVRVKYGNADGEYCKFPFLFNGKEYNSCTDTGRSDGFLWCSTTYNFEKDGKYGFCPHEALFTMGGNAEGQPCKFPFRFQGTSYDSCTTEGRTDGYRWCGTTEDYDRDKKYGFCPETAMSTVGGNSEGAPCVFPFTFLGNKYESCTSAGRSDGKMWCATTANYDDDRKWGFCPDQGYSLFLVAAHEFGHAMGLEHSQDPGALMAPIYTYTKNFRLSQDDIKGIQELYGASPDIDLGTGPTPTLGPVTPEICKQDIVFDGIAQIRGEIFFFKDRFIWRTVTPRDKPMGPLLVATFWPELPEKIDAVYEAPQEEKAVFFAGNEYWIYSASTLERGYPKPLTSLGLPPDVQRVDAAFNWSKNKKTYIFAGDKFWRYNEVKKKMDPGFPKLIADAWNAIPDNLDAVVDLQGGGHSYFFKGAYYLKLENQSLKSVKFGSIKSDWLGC
Protocol: The inhibitory activity of the peptides was determined by measuring the MMPs' protease activity towards a FRET substrate. 0.8 nM MMP2 or MMP9 (Sigma-Aldrich), 10 μM substrate (FAM-Lys-Pro-Leu-Gly-Leu-Lys(Dabcyl)-Ala-Arg-NH2, λex 490 nm; λem 520 nm) and various concentrations of the peptides (0.0001 μM-10 μM or 0.001 μM-100 μM) were used. The reactions were performed in 50 mM Tris-HCl buffer (pH 7.5) containing 150 mM NaCl, 10 mM CaCl2, 0.05% Brij35, at 37° C. MMP2 was pre-incubated with the peptide inhibitors for 10 min before adding the substrate. All the numbers were input into GraphPad Prism (GraphPad Software, San Diego) for IC50 calculation.

butelase-1 = test: Kinetics of peptide cyclization by butelase-1; format: biochemical, Clitoria ternatea; details: for Kcat / Km: cyclization by butelase-1, 37° C., PBS pH 6.5
Protocol: (§1) Enzyme-meditated cyclization and ligation reactions were performed in 20 mM PBS buffer (pH 6.5) at 37° C. with 0.5 mM TCEP. The reaction was quenched by adding 20% TFA. The enzyme concentration was determined by the absorbance at 280 nm using Nanodrop. The reactions were monitored by reverse-phase analytical HPLC, and the products were characterized by MALDI-MS or ESI-MS.
(§2) Model peptides (1-6, see Table 51) were used in the kinetic studies. The cyclization reaction was performed in 20 mM PBS buffer (pH 6.5) containing 0.5 mM TCEP, at 37° C. The reaction was monitored by analytical RP-HPLC (5% buffer B-45% buffer B in 20 min). Kinetic constants for these peptides were obtained from the initial reaction rates. To ensure that the measurement of reaction rate was in the range of the initial velocity, the reaction was quenched using 20% TFA, when less than 25% of the substrate has been converted. Each recorded value is an average of measurements in triplicate. All the numbers were input into GraphPad Prism (GraphPad Software, San Diego) to obtain the Michaelis-Menten curve and calculate the kinetic parameters (kcat and Km).
Plant flowers of Clitoria ternatea grown in the Nanyang Technological University Herb Garden were collected. Butelase-1 was extracted using a chromatography method described previously.^5 Purified butelase-1 was obtained and stored at 4° C. or −80° C. in 50 mM sodium phosphate buffer (pH 6.0) containing 1 mM EDTA, 5 mM β-mercaptoethanol, 0.01% Tween 20 and 20% sucrose.

VyPAL2 = test: Kinetics of peptide cyclization by VyPAL2; format: biochemical; details: for Kcat / Km: cyclization by VyPAL2, 37° C., PBS pH 6.5
Protocol: as §1, §2
VyPAL2 was expressed using sf9 insect cells as described previously (Hemu et al. PNAS, 2019, 116, 11737-11746). 100 mL of the viral vector containing VyPAL2 gene was used to infect sf9 cells at cell density of 2.5×10^6 cells/mL. MOI for infection was set between 1-10 for protein expression. The culture was incubated at 27° C. shaker for 3 days (72 hours) at 135 rpm. Protein purification was performed in three steps: Immobilized Metal Affinity Chromatography (IMAC), Ion-Exchange Chromatography (IEX), and Size-Exclusion chromatography (SEC). Pro-VyPAL2 was activated at pH 5 in 50 mM sodium citrate buffer (0.1 M NaCl, 1 mM DTT, 0.5 mM LS) for 2-3 h at 37° C. After activation, the activated enzyme was purified by SEC at pH 6.5 (20 mM PBS, 0.1 M NaCl, 1 mM DTT).

[1] = enzyme bond, 37.0 °C
[2] = the molecule shown is the open-chain precursor, 102-membered ring, butelase-1 (0.01 eq), 20 mM PBS pH 6.5, 0.4 mM

VyPAL2, sequence (as listed by the source): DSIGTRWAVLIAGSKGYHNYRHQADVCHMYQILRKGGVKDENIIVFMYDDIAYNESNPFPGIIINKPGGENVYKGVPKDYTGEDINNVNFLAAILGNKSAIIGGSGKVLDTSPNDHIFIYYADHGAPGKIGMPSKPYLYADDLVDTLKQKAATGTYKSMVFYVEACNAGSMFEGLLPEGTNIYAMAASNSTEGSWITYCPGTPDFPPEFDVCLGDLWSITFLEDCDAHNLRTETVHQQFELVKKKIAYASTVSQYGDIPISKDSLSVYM
butelase-1, sequence (as listed by the source): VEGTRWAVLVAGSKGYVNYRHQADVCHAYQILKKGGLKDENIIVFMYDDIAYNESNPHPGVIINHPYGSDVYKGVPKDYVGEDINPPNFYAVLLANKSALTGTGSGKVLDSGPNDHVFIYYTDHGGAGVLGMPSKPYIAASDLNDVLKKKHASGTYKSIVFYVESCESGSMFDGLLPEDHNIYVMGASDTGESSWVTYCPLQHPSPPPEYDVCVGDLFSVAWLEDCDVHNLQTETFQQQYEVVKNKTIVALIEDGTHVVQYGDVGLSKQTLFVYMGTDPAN

CC[C@H](C)[C@H](N)C(=O)N[C@@H](CO)C(=O)N[C@@H](Cc1ccc(O)cc1)C(=O)NCC(=O)N[C@@H](CC(N)=O)C(=O)N[C@@H](CC(=O)NO)C(=O)N[C@@H](C)C(=O)N[C@@H](CC(C)C)C(=O)N[C@@H](CCSC)C(=O)N1CCC[C@H]1C(N)=O [Peptide 9, ISYGNN(OH)ALMP] (H-ISYGND(NHOH)ALMP-NH2)
improvement of MMP2 inhibitory activity over APP-IP 8 (MMP2; replacement of Asp by Asn(OH)): 2.6 fold

CC[C@H](C)[C@@H]1NC(=O)[C@H](CO)NC(=O)CNC(=O)[C@@H]2CCCN2C(=O)[C@H](CCSC)NC(=O)[C@H](CC(C)C)NC(=O)[C@H](C)NC(=O)[C@H](CC(=O)NO)NC(=O)[C@H](CCC(N)=O)NC(=O)CNC(=O)[C@H](Cc2ccc(O)cc2)NC(=O)[C@H](CO)NC1=O [Peptide 11, cyclo[SISYGQN(OH)ALMPG]] (cyclo(ALMPGSISYGQD(NHOH)))
IC50 (MMP2; APP-IP-derived peptides, 0.8 nM MMP2, 10 μM substrate, pH 7.5, 37° C., read-out: IC50 towards MMP2): > 100 µM
Ki (MMP2; APP-IP-derived peptides, Ki=IC50/(1+[S]o/Km), read-out: Ki towards MMP2): > 100 µM

AIYRRGRLYRRDHV [Peptide 3]
Kcat (butelase-1): 0.454 ± 0.02 s⁻¹
Km (butelase-1): 630 ± 19.5 µM

AIYRRGRLYRRDSL [Peptide 6]
Kcat (VyPAL2): 0.581 ± 0.09 s⁻¹
Km (VyPAL2): 2070 ± 407 µM

AIYRRGRLYRRN(OH)HV (AIYRRGRLYRR[N(OH)]HV-NH2) [Peptide 2]
catalytic efficiency of butelase-1, fold higher than DHV peptide 3 (butelase-1): 48 fold
catalytic efficiency of butelase-1, fold lower than NHV peptide 1 (butelase-1): ~6 fold
Kcat (butelase-1): 3.46 ± 0.27 s⁻¹
Km (butelase-1): 98.8 ± 17.8 µM

AIYRRGRLYRRN(OH)SL (AIYRRGRLYRR[N(OH)]SL-NH2) [Peptide 5]
catalytic efficiency of VyPAL2, fold higher than DSL peptide 6 (VyPAL2): 28 fold
catalytic efficiency of VyPAL2, fold lower than NSL peptide 4 (VyPAL2): ~14 fold
Kcat (VyPAL2): 0.942 ± 0.082 s⁻¹
Km (VyPAL2): 120 ± 19.2 µM

AIYRRGRLYRRNHV [Peptide 1]
Kcat (butelase-1): 14.86 ± 0.34 s⁻¹
Km (butelase-1): 67.5 ± 2.8 µM

AIYRRGRLYRRNSL [Peptide 4]
Kcat (VyPAL2): 4.56 ± 0.24 s⁻¹
Km (VyPAL2): 42.5 ± 8.83 µM

H-Gly-Arg-Cys-Thr-Lys-Ser-Ile-Pro-Pro-Ile-Cys-Phe-Pro-Asp-Ile-Val-NH2?
ring closure, conversion ([1]; the molecule shown is the open-chain precursor, 42-membered ring, butelase-1 (0.01 eq), 20 mM PBS pH 6.5, 0.4 mM): 0%

H-Gly-Gly-Val-Cys-Pro-Lys-Ile-Leu-Lys-Lys-Cys-Arg-Arg-Asp-Ser-Asp-Cys-Pro-Gly-Ala-Cys-Ile-Cys-Arg-Gly-Asn-Gly-Tyr-Cys-Gly-Ser-Gly-Ser-Asn(OH)-Ile-Val-NH2?
ring closure, conversion [1, 2]: 95%

H-Gly-Gly-Val-Cys-Pro-Lys-Ile-Leu-Lys-Lys-Cys-Arg-Arg-Asp-Ser-Asp-Cys-Pro-Gly-Ala-Cys-Ile-Cys-Arg-Gly-Asn-Gly-Tyr-Cys-Gly-Ser-Gly-Ser-Asp-Ile-Val-NH2?
ring closure, conversion [1, 2]: 0%

H-Gly-Leu-Pro-Val-Cys-Gly-Glu-Thr-Cys-Phe-Gly-Gly-Thr-Cys-Asn-Thr-Pro-Gly-Cys-Ser-Cys-Thr-Trp-Pro-Ile-Cys-Thr-Arg-Asp-Ile-Val-NH2?
ring closure, conversion ([1]; the molecule shown is the open-chain precursor, 87-membered ring, butelase-1 (0.01 eq), 20 mM PBS pH 6.5, 0.4 mM): 0%

c[FLaRGN(OH)FLaRGN(OH)]
ring closure, conversion ([1]; 36-membered ring, butelase-1 (0.01 eq), 20 mM PBS pH 6.5, 0.4 mM): 90%

cyclo[SYCN(OH)CLCRRGVCRCICTI]
ring closure, conversion ([1]; 54-membered ring, butelase-1 (0.04 eq), PBS pH 6.5, 0.1 mM): 60%
